According to the NIST ThermoML archive (doi:10.1016/j.jct.2015.04.015):
Numbers after ± are expanded uncertainties.

Details: Gas, Rotating-body viscometer developed for low-density gases

O=C=O [carbon dioxide]
Details	viscosity [mPa·s]
253.15 K, 100.2 kPa	0.01271 ± 5.2e-05
253.15 K, 153 kPa	0.01271 ± 5.2e-05
253.15 K, 200.5 kPa	0.01271 ± 5.2e-05
253.15 K, 300.5 kPa	0.01271 ± 5.2e-05
253.15 K, 401.4 kPa	0.01272 ± 5.2e-05
273.17 K, 100.4 kPa	0.01371 ± 5.2e-05
273.17 K, 151.8 kPa	0.0137 ± 5.2e-05
273.17 K, 203.4 kPa	0.0137 ± 5.2e-05
273.17 K, 301.7 kPa	0.01371 ± 5.2e-05
273.17 K, 399.4 kPa	0.01371 ± 5.2e-05
273.17 K, 502.8 kPa	0.01372 ± 5.2e-05
298.15 K, 100.8 kPa	0.0149 ± 3e-05
298.15 K, 150.4 kPa	0.01491 ± 3e-05
298.15 K, 201.6 kPa	0.0149 ± 3e-05
298.15 K, 204.6 kPa	0.0149 ± 3e-05
298.15 K, 303.2 kPa	0.01491 ± 3e-05
298.15 K, 303.3 kPa	0.01491 ± 3e-05
298.15 K, 400 kPa	0.01493 ± 3e-05
298.15 K, 402.9 kPa	0.01492 ± 3e-05
298.15 K, 498.5 kPa	0.01493 ± 3e-05
298.15 K, 499.7 kPa	0.01494 ± 3e-05
298.15 K, 502.8 kPa	0.01494 ± 3e-05
298.15 K, 604.5 kPa	0.01494 ± 3e-05
323.16 K, 100.8 kPa	0.01608 ± 5.1e-05
323.16 K, 151.6 kPa	0.01608 ± 5.1e-05
323.16 K, 200.9 kPa	0.01609 ± 5.1e-05
323.16 K, 304.9 kPa	0.0161 ± 5.1e-05
323.16 K, 400.7 kPa	0.0161 ± 5.1e-05
323.16 K, 500.4 kPa	0.01612 ± 5.1e-05
323.16 K, 598.7 kPa	0.01613 ± 5.1e-05
373.16 K, 100.4 kPa	0.0184 ± 5e-05
373.16 K, 151.4 kPa	0.0184 ± 5e-05
373.16 K, 201.1 kPa	0.0184 ± 5e-05
373.16 K, 296.8 kPa	0.01842 ± 5e-05
373.16 K, 399.9 kPa	0.01843 ± 5e-05
373.16 K, 604.9 kPa	0.01846 ± 5e-05
373.16 K, 802.6 kPa	0.01849 ± 5e-05
423.14 K, 100.2 kPa	0.02065 ± 5e-05
423.14 K, 153.3 kPa	0.02066 ± 5e-05
423.14 K, 204.1 kPa	0.02065 ± 5e-05
423.14 K, 302 kPa	0.02066 ± 5e-05
423.14 K, 397.6 kPa	0.02068 ± 5e-05
423.14 K, 600.4 kPa	0.0207 ± 5e-05
423.14 K, 800.8 kPa	0.02073 ± 5e-05
423.14 K, 998.9 kPa	0.02077 ± 5e-05
473.15 K, 153 kPa	0.02275 ± 5e-05
473.15 K, 202.5 kPa	0.02277 ± 5e-05
473.15 K, 403.5 kPa	0.02278 ± 5e-05
473.15 K, 601.1 kPa	0.02282 ± 5e-05
473.15 K, 803 kPa	0.02284 ± 5e-05
473.15 K, 997.8 kPa	0.02288 ± 5e-05
473.15 K, 1200.9 kPa	0.0229 ± 5e-05
473.16 K, 100.1 kPa	0.02275 ± 5e-05
